Reference: patent US11180484B2, “Pyrazole derivatives as plasma kallikrein inhibitors” (KALVISTA PHARMACEUTICALS LIMITED, priority 2016, dated 2021)
pIC50, pKi: −log10 of the molar value.

Columns and labels:
[1] = In vitro permeability, Caco-2 model for oral absorption; type: in vitro ADME; details: human, apical to basolateral, 50 μM test compound, 37° C.
Method: In vitro permeability was determined using the Caco-2 model for oral absorption. The methodology was adapted from standard published methods (Wang Z, Hop C. E., Leung K. H. and Pang J. (2000) J Mass Spectrom 35(1); 71-76). The Caco-2 monolayers were established in a Biocoat™ HTS fibrillar collagen 24 well multiwell insert system (1.0 μm, PET membrane, Corning 354803) in which 200,000 cells were seeded into each insert and maintained over 3 days before being utilised in the permeability assay. For the assay, 50 μM test compound is added to the apical side of the inserts and incubated for 1 hour at 37° C. on a shaking platform (120 rpm). Apical to basolateral transport was determined by measuring the test article in both compartments by LCMS following the 1 hour incubation. The integrity of the Caco-2 monolayers was confirmed by two methods, (i) comparison of pre- and post-experiment transepithelial electrical resistance (TEER) and, (ii) assessment of Lucifer Yellow flux.

Human plasma kallikrein [2] = target: T1, Human plasma kallikrein (Homo sapiens (Human), UniProt P03952); assay: Determination of the IC50 for plasma kallikrein; type: biochemical; details: 25° C., substrate H-DPro-Phe-Arg-AFC; read-out: IC50 (human PKal)
T1 sequence (P03952 391-638): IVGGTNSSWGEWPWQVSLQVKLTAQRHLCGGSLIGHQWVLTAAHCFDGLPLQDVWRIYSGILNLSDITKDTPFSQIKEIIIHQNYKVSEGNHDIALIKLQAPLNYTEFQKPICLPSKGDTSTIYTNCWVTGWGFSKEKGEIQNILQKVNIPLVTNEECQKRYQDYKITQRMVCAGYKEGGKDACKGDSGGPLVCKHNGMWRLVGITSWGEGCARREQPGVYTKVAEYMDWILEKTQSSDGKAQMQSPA
T1 sequence (P03952 20-390): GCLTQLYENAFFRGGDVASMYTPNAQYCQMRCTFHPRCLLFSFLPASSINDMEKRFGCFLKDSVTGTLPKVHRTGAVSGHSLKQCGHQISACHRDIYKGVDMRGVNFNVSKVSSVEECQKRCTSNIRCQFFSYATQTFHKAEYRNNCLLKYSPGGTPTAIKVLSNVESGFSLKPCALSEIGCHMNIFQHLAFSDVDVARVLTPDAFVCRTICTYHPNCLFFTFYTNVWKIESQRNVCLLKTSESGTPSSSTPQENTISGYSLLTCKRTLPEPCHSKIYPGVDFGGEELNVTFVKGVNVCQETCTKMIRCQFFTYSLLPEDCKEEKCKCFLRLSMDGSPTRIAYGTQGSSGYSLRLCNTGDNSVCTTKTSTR
Method: (§1) Human plasma kallikrein (Protogen) was incubated at 25° C. with the fluorogenic substrate H-DPro-Phe-Arg-AFC and various concentrations of the test compound. Residual enzyme activity (initial rate of reaction) was determined by measuring the change in […] at 410 nm and the IC50 value for the test compound was determined.

Human Factor XIIa = Human Factor XIIa (Homo sapiens (Human), UniProt P00748); assay: Factor XIIa inhibitory activity in vitro; type: biochemical; details: 25° C., substrate H-DPro-Phe-Arg-AFC; read-out: IC50 (human FXIIa)
Chain of Human Factor XIIa (P00748 373-615): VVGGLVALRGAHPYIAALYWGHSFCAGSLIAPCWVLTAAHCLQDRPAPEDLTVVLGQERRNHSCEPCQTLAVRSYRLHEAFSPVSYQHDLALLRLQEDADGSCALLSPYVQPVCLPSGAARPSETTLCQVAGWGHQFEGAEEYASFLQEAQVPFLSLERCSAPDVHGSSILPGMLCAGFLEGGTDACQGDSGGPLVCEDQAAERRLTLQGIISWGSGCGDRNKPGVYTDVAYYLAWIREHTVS
Method: as §1, with “Factor XIIa (Enzyme Research Laboratories)” for “plasma kallikrein (Protogen)”

[3] = Intrinsic clearance in human liver microsomes; type: in vitro ADME; details: human liver microsomes 0.5 mg/mL, 5 μM test compound, 37° C.; read-out: Human liver microsome (Clint μL/min/mg protein)
Method: (§2) Rat or human liver microsomes (0.5 mg/mL; Corning) were incubated with 5 μM test compound at 37° C. on a shaking platform (150 rpm). Samples were taken at 0, 6, 12, 18, 24 and 60 min and test compound concentrations were determined by LCMS against a calibration curve.

[4] = Predicted plasma clearance (Clp), well-stirred model, rat; type: in vitro ADME; details: percentage of hepatic blood flow
Method: (§3) The predicted plasma clearance (Clp) is calculated using the well-stirred model (Rowland M, Benet L Z, and Graham G G. Clearance concepts in pharmacokinetics. J Pharmacokinet Biopharm. (1973) 1:123-136.), one of several models that can be used to extrapolate the in vitro data. The model assumes instantaneous and complete mixing of drug within the liver and is a function of intrinsic clearance, hepatic blood flow and free fraction of drug in the blood. The predicted plasma clearance in mL/min/kg is presented as a percentage of hepatic blood flow (LBF).

[5] = Plasma protein binding (PPB), rapid equilibrium dialysis, human plasma; type: in vitro ADME; details: 5 μM test compound, dialysis 5 hrs at 37° C.
Method: The fraction unbound in plasma was determined using ThermoScientific™ Pierce™ Rapid Equilibrium Dialysis Technology (Single-Use plate with inserts, 8K MWCO). […] Reference samples from the non-dialysed plasma were taken before the incubation to enable an assessment of recovery. Test compound concentrations were determined in plasma and buffer compartments by LCMS against a calibration curve. […] Results are presented as percent plasma protein bound (% PPB).

[6] = Predicted plasma clearance (Clp), well-stirred model, human; type: in vitro ADME; details: percentage of hepatic blood flow
Method: as §3

[7] = Intrinsic clearance in rat liver microsomes; type: in vitro ADME; details: rat liver microsomes 0.5 mg/mL, 5 μM test compound, 37° C.; read-out: rat liver microsome (Clint μL/min/mg protein)
Method: as §2

Human FXIa = Human FXIa (Homo sapiens (Human), UniProt P03951); assay: Determination of the % inhibition / IC50 for FXIa; type: biochemical; details: for pIC50: 25° C., substrate Z-Gly-Pro-Arg-AFC
Chain of Human FXIa (P03951 388-625): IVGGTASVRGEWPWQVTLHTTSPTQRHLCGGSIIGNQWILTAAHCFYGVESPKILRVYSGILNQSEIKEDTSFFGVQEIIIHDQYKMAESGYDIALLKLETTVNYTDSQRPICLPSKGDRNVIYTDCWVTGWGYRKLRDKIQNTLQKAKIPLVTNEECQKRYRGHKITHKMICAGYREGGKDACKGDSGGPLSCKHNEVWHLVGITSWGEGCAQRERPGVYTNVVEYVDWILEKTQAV
Chain of Human FXIa (P03951 19-387): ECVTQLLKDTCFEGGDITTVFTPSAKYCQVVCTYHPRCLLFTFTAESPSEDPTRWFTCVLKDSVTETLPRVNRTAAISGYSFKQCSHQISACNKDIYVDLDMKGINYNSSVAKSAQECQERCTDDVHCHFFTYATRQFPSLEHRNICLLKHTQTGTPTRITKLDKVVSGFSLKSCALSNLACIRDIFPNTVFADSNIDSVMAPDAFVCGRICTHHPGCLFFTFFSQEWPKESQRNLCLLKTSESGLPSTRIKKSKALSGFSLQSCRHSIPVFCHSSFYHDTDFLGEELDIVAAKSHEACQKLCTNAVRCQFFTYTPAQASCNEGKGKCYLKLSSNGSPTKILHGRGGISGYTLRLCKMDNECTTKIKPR
Method: FXIa inhibitory activity in vitro was determined using standard published methods (see e.g. Johansen et al., Int. J. Tiss. Reac. 1986, 8, 185; Shori et al., Biochem. Pharmacol., 1992, 43, 1209; Sturzebecher et al., Biol. Chem. Hoppe-Seyler, 1992, 373, 1025). […]

Human KLK1 = Human KLK1 (Homo sapiens (Human), UniProt P06870); assay: Determination of the IC50 for KLK1; type: biochemical; details: 25° C., substrate H-DVal-Leu-Arg-AFC
Chain of Human KLK1 (P06870 25-262): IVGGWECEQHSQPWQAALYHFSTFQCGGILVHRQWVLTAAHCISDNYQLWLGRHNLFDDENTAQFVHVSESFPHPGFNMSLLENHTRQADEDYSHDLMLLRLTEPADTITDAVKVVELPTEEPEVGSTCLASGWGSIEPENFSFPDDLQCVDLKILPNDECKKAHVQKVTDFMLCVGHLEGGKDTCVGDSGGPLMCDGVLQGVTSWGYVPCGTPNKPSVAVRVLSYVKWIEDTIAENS
Method: as §1, with “KLK1 (Callbiochem)” for “plasma kallikrein (Protogen)”, “H-DVal-Leu-Arg-AFC” for “H-DPro-Phe-Arg-AFC”

[8] = Plasma protein binding (PPB), rapid equilibrium dialysis, rat plasma; type: in vitro ADME; details: 5 μM test compound, dialysis 5 hrs at 37° C.
Method: The fraction unbound in plasma was determined using ThermoScientific™ Pierce™ Rapid Equilibrium Dialysis Technology (Single-Use plate with inserts, 8K MWCO). 5 μM test compound was spiked into human or rat plasma (300 μL) and dialysed against 146.5 mM phosphate buffer (500 μL) for 5 hrs at 37° C., shaking at 1200 rpm. Reference samples from the non-dialysed plasma were taken before the incubation to enable an assessment of recovery. Test compound concentrations were determined in plasma and buffer compartments by LCMS against a calibration curve. The fraction unbound in plasma was determined using standard methodology (Waters N J et al (2008) J Pharm Sci 97(10); 4586-95). Results are presented as percent plasma protein bound (% PPB).

Human plasma kallikrein [9] = target: T1, Human plasma kallikrein; assay: Determination of the Ki for plasma kallikrein (mixed-model inhibition); type: biochemical; details: for pKi: human plasma kallikrein, mixed-model inhibition equation; for Alpha: parameter of the mixed-model equation indicating mechanism of inhibition
Method: Plasma kallikrein inhibitory activity in vitro was determined using standard published methods (e.g. Johansen et al., Int. J. Tiss. Reac. 1986, 8, 185; Shori et al., Biochem. Pharmacol., 1992, 43, 1209; Sturzebecher et al., Biol. Chem. Hoppe-Seyler, 1992, 373, 1025). […]. Residual enzyme activity (initial rate of reaction) was determined by measuring the change in fluorescence at 410 nm. The Ki value for the test compound was determined using the mixed-model inhibition equation (based on Equation 3.2 in: RA Copeland, Evaluation of Enzyme Inhibitors in Drug Discovery, Wiley 2005) in GraphPad Prism. The mixed model equation includes competitive, uncompetitive and noncompetitive inhibition as special cases and the parameter of Alpha to indicate mechanism of inhibition.

SMILES	Papp at 1 h, 50 μM [1] [×10⁻⁶ cm/s]	pIC50 (Human plasma kallikrein [2])	pIC50 (Human Factor XIIa)	microsomal CLint at 5 μM [3] [µL/min/mg]	Predicted in vivo rat Clp (% LBF) [4] [% LBF]	fraction unbound at 5 h, 5 μM [5]	Predicted in vivo human Clp (% LBF) [6] [% LBF]	microsomal CLint at 5 μM [7] [µL/min/mg]	pIC50 (Human FXIa)	pIC50 (Human KLK1)	fraction unbound at 5 h, 5 μM [8]	pKi (Human plasma kallikrein [9])	Alpha (Human plasma kallikrein [9])	inhibition at 40 µM (Human FXIa; 40 μM test compound, read-out: % Inhibition @ 40 μM (human FXIa)) [%]
COCc1nn(Cc2ccc(Cn3cc(C)cn3)cc2)cc1C(=O)NCc1cc(OC)ccc1-n1cnnn1 [Example 61, N-{[5-methoxy-2-(1,2,3,4-tetrazol-1-yl)phenyl]methyl}-3-(methoxymethyl)-1-({4-[(4-methylpyrazol-1-yl)methyl]phenyl}methyl)pyrazole-4-carboxamide]	22	8.77	< 5.40	55	15	0.08	4	132	< 4.40	< 5.40	0.04			
COCc1nn(Cc2cnc(N3CCCC3)nc2)cc1C(=O)NCc1cc(OC)ccc1-n1cnnn1 [Example 80, N-{[5-methoxy-2-(1,2,3,4-tetrazol-1-yl)phenyl]methyl}-3-(methoxymethyl)-1-{[2-(pyrrolidin-1-yl)pyrimidin-5-yl]methyl}pyrazole-4-carboxamide]	23	7.97	< 5.40	14	6	0.08	4	54	6.11	< 5.40	0.04	8.62	14.8	
COCc1nn(Cc2cnc(N3CCC(F)(F)C3)nc2)cc1C(=O)NCc1cc(OC)ccc1-n1cnnn1 [Example 88, 1-{[2-(3,3-difluoropyrrolidin-1-yl)pyrimidin-5-yl]methyl}-N-{[5-methoxy-2-(1,2,3,4-tetrazol-1-yl)phenyl]methyl}-3-(methoxymethyl)pyrazole-4-carboxamide]		8.08	< 4.40						5.31	< 4.40		8.54		

Next, values leading:

Papp at 1 h, 50 μM [1] [×10⁻⁶ cm/s]	pIC50 (Human plasma kallikrein [2])	pIC50 (Human Factor XIIa)	microsomal CLint at 5 μM [3] [µL/min/mg]	Predicted in vivo rat Clp (% LBF) [4] [% LBF]	fraction unbound at 5 h, 5 μM [5]	Predicted in vivo human Clp (% LBF) [6] [% LBF]	microsomal CLint at 5 μM [7] [µL/min/mg]	pIC50 (Human FXIa)	pIC50 (Human KLK1)	fraction unbound at 5 h, 5 μM [8]	pKi (Human plasma kallikrein [9])	Alpha (Human plasma kallikrein [9])	inhibition at 40 µM (Human FXIa; 40 μM test compound, read-out: % Inhibition @ 40 μM (human FXIa)) [%]	SMILES
2	8.70	< 4.40	3	5	0.23	3	6	< 4.40	< 4.40	0.36				COc1ccnc(CNC(=O)c2cn(Cc3ccc(Cn4ccccc4=O)cc3)nc2N)c1F [Example 5, 3-amino-N-[(3-fluoro-4-methoxypyridin-2-yl)methyl]-1-({4-[(2-oxopyridin-1-yl)methyl]phenyl}methyl)pyrazole-4-carboxamide]
25	9.05	< 4.40	90	12	0.09	35	114	5.33	< 4.40	0.03	9.52	1.6	90	COCc1nn(Cc2ccc(Cn3cc(C)cn3)cc2)cc1C(=O)NCc1c(-n2cnnn2)ccc(OC)c1F [Example 60, N-{[2-fluoro-3-methoxy-6-(1,2,3,4-tetrazol-1-yl)phenyl]methyl}-3-(methoxymethyl)-1-({4-[(4-methylpyrazol-1-yl)methyl]phenyl}methyl)pyrazole-4-carboxamide]
6	9.22	< 5.40	35	33	0.08	19	94	< 4.40	< 5.40	0.09				O=C(NCc1c(F)cccc1-n1cnnn1)c1cn(Cc2ccc(Cn3ccccc3=O)cc2)nc1C(F)(F)F [Example 64, N-{[2-fluoro-6-(1,2,3,4-tetrazol-1-yl)phenyl]methyl}-1-({4-[(2-oxopyridin-1-yl)methyl]phenyl}methyl)-3-(trifluoromethyl)pyrazole-4-carboxamide]
23	9.52	< 4.40						6.64	< 4.40		9.28	2.24		COc1ccc(-n2cnnn2)c(CNC(=O)c2cn(Cc3ccc(N4CCCC4)nc3)nc2C(F)(F)F)c1F [Example 83, N-{[2-fluoro-3-methoxy-6-(1,2,3,4-tetrazol-1-yl)phenyl]methyl}-1-{[6-(pyrrolidin-1-yl)pyridin-3-yl]methyl}-3-(trifluoromethyl)pyrazole-4-carboxamide]
		< 4.40						< 4.40	< 5.00		8.17	48		COc1cccc(CNC(=O)c2cn(Cc3ccc(Cn4ccccc4=O)cc3)nc2N)c1F [Reference Example B, 3-Amino-1-[4-(2-oxo-2H-pyridin-1-ylmethyl)-benzyl]-1H-pyrazole-4-carboxylic acid 2-fluoro-3-methoxy-benzylamide, reference compound]
